Test results taken from PubChem BioAssay (NCI).
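Interpolation was linear, between the two tested concentrations surrounding the appropriate level; five concentrations were tested over 48 hours in 96-well plates. Here, GI50 denotes the concentration required for 50% inhibition of growth. TGI is the concentration that stops growth completely.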

What was measured:
Assay in all cases: NCI-60 cell line screen, 48 h
SW-620 colon = tested on: SW-620 colon
SK-MEL-5 melanoma = tested on: SK-MEL-5 melanoma
NCI-H226 lung = tested on: NCI-H226 lung
BT-549 breast = tested on: BT-549 breast
SF-539 CNS = tested on: SF-539 CNS
SK-OV-3 ovarian = tested on: SK-OV-3 ovarian
SF-268 CNS = tested on: SF-268 CNS
MCF7 breast = tested on: MCF7 breast
ACHN renal = tested on: ACHN renal
SK-MEL-28 melanoma = tested on: SK-MEL-28 melanoma
OVCAR-4 ovarian = tested on: OVCAR-4 ovarian
OVCAR-3 ovarian = tested on: OVCAR-3 ovarian
HT29 colon = tested on: HT29 colon
NCI-H23 lung = tested on: NCI-H23 lung
A498 renal = tested on: A498 renal
UACC-257 melanoma = tested on: UACC-257 melanoma
786-0 renal = tested on: 786-0 renal
MOLT-4 leukemia = tested on: MOLT-4 leukemia
KM12 colon = tested on: KM12 colon
DU-145 prostate = tested on: DU-145 prostate
K-562 leukemia = tested on: K-562 leukemia
CCRF-CEM leukemia = tested on: CCRF-CEM leukemia
UO-31 renal = tested on: UO-31 renal
NCI-H460 lung = tested on: NCI-H460 lung
HL-60(TB) leukemia = tested on: HL-60(TB) leukemia
SNB-19 CNS = tested on: SNB-19 CNS
RXF 393 renal = tested on: RXF 393 renal
NCI/ADR-RES ovarian = tested on: NCI/ADR-RES ovarian
HOP-92 NSCLC = tested on: HOP-92 NSCLC
SN12C renal = tested on: SN12C renal
M14 melanoma = tested on: M14 melanoma
EKVX NSCLC = tested on: EKVX NSCLC
OVCAR-8 ovarian = tested on: OVCAR-8 ovarian
PC-3 prostate = tested on: PC-3 prostate
CAKI-1 renal = tested on: CAKI-1 renal
RPMI-8226 leukemia = tested on: RPMI-8226 leukemia
NCI-H522 lung = tested on: NCI-H522 lung
HCT-15 colon = tested on: HCT-15 colon
HCT-116 colon = tested on: HCT-116 colon
OVCAR-5 ovarian = tested on: OVCAR-5 ovarian
IGROV1 ovarian = tested on: IGROV1 ovarian
HS 578T breast = tested on: HS 578T breast
SR leukemia = tested on: SR leukemia
MALME-3M melanoma = tested on: MALME-3M melanoma
SNB-75 CNS = tested on: SNB-75 CNS
HCC-2998 colon = tested on: HCC-2998 colon
COLO 205 colon = tested on: COLO 205 colon
SK-MEL-2 melanoma = tested on: SK-MEL-2 melanoma
T-47D breast = tested on: T-47D breast
SF-295 CNS = tested on: SF-295 CNS
A549 NSCLC = tested on: A549 NSCLC
MDA-MB-435 = tested on: MDA-MB-435
MDA-MB-231 breast = tested on: MDA-MB-231 breast
UACC-62 melanoma = tested on: UACC-62 melanoma
LOX IMVI melanoma = tested on: LOX IMVI melanoma
U251 CNS = tested on: U251 CNS
HOP-62 NSCLC = tested on: HOP-62 NSCLC
TK-10 renal = tested on: TK-10 renal

N#Cc1c(-c2ccccc2)nc(SCC2CO2)nc1N1CCOCC1 (stereo unspecified)
GI50 (SW-620 colon): 28.8 µM | TGI (SW-620 colon): > 100 µM | GI50 (SK-MEL-5 melanoma): 10.2 µM | TGI (SK-MEL-5 melanoma): > 100 µM | GI50 (NCI-H226 lung): 11.5 µM | TGI (NCI-H226 lung): > 100 µM | GI50 (BT-549 breast): 5.89 µM | TGI (BT-549 breast): > 94.1 µM | GI50 (SF-539 CNS): 10.6 µM | TGI (SF-539 CNS): > 95.4 µM | GI50 (SK-OV-3 ovarian): 8.25 µM | TGI (SK-OV-3 ovarian): 57.3 µM | GI50 (SF-268 CNS): 13.1 µM | TGI (SF-268 CNS): > 100 µM | GI50 (MCF7 breast): 3.06 µM | TGI (MCF7 breast): > 100 µM | GI50 (ACHN renal): 4.27 µM | TGI (ACHN renal): > 100 µM | GI50 (SK-MEL-28 melanoma): 5.11 µM | TGI (SK-MEL-28 melanoma): 76.5 µM | GI50 (OVCAR-4 ovarian): 52.7 µM | TGI (OVCAR-4 ovarian): > 100 µM | GI50 (OVCAR-3 ovarian): 5.27 µM | TGI (OVCAR-3 ovarian): > 69.2 µM | GI50 (HT29 colon): 29.7 µM | TGI (HT29 colon): > 100 µM | GI50 (NCI-H23 lung): 8.51 µM | TGI (NCI-H23 lung): > 100 µM | GI50 (A498 renal): 1.26 µM | TGI (A498 renal): 5.42 µM | GI50 (UACC-257 melanoma): 34.3 µM | TGI (UACC-257 melanoma): > 100 µM | GI50 (786-0 renal): 4.12 µM | TGI (786-0 renal): > 46.1 µM | GI50 (MOLT-4 leukemia): 10.1 µM | TGI (MOLT-4 leukemia): > 74.6 µM | GI50 (KM12 colon): 25.8 µM | TGI (KM12 colon): > 100 µM | GI50 (DU-145 prostate): 14.2 µM | TGI (DU-145 prostate): > 100 µM | GI50 (K-562 leukemia): > 47.2 µM | TGI (K-562 leukemia): > 100 µM | GI50 (CCRF-CEM leukemia): > 31 µM | TGI (CCRF-CEM leukemia): > 100 µM | GI50 (UO-31 renal): 5.61 µM | TGI (UO-31 renal): > 100 µM | GI50 (NCI-H460 lung): 6.59 µM | TGI (NCI-H460 lung): > 100 µM | GI50 (HL-60(TB) leukemia): 8.88 µM | TGI (HL-60(TB) leukemia): > 100 µM | GI50 (SNB-19 CNS): 64.4 µM | TGI (SNB-19 CNS): > 100 µM | GI50 (RXF 393 renal): 13 µM | TGI (RXF 393 renal): > 100 µM | GI50 (NCI/ADR-RES ovarian): 11.3 µM | TGI (NCI/ADR-RES ovarian): > 95.5 µM | GI50 (HOP-92 NSCLC): 0.284 µM | TGI (HOP-92 NSCLC): 1.22 µM | GI50 (SN12C renal): 15.3 µM | TGI (SN12C renal): > 100 µM | GI50 (M14 melanoma): 13.4 µM | TGI (M14 melanoma): > 100 µM | GI50 (EKVX NSCLC): 4.73 µM | TGI (EKVX NSCLC): > 78.5 µM | GI50 (OVCAR-8 ovarian): 35.9 µM | TGI (OVCAR-8 ovarian): > 100 µM | GI50 (PC-3 prostate): 6.19 µM | TGI (PC-3 prostate): > 100 µM | GI50 (CAKI-1 renal): 1.07 µM | TGI (CAKI-1 renal): 17 µM | GI50 (RPMI-8226 leukemia): 9.41 µM | TGI (RPMI-8226 leukemia): 72.9 µM | GI50 (NCI-H522 lung): 27.5 µM | TGI (NCI-H522 lung): > 100 µM | GI50 (HCT-15 colon): 4.71 µM | TGI (HCT-15 colon): > 100 µM | GI50 (HCT-116 colon): 20.5 µM | TGI (HCT-116 colon): > 100 µM | GI50 (OVCAR-5 ovarian): 5.05 µM | TGI (OVCAR-5 ovarian): > 83.3 µM | GI50 (IGROV1 ovarian): 2.6 µM | TGI (IGROV1 ovarian): 25.9 µM | GI50 (HS 578T breast): 1.93 µM | TGI (HS 578T breast): 11.8 µM | GI50 (SR leukemia): 12.3 µM | TGI (SR leukemia): > 53.3 µM | GI50 (MALME-3M melanoma): 2.32 µM | TGI (MALME-3M melanoma): > 68.3 µM | GI50 (SNB-75 CNS): 1.91 µM | TGI (SNB-75 CNS): > 82.6 µM | GI50 (HCC-2998 colon): 0.253 µM | TGI (HCC-2998 colon): 18.2 µM | GI50 (COLO 205 colon): 11.3 µM | TGI (COLO 205 colon): 67.6 µM | GI50 (SK-MEL-2 melanoma): 14.7 µM | TGI (SK-MEL-2 melanoma): 75.7 µM | GI50 (T-47D breast): 2.74 µM | TGI (T-47D breast): 16.4 µM | GI50 (SF-295 CNS): 2.67 µM | TGI (SF-295 CNS): 28.2 µM | GI50 (A549 NSCLC): 21 µM | TGI (A549 NSCLC): > 100 µM | GI50 (MDA-MB-435): 9.56 µM | TGI (MDA-MB-435): > 100 µM | GI50 (MDA-MB-231 breast): 15.8 µM | TGI (MDA-MB-231 breast): > 100 µM | GI50 (UACC-62 melanoma): 3.52 µM | TGI (UACC-62 melanoma): > 86.9 µM | GI50 (LOX IMVI melanoma): 9.49 µM | TGI (LOX IMVI melanoma): > 100 µM | GI50 (U251 CNS): 19.2 µM | TGI (U251 CNS): > 100 µM | GI50 (HOP-62 NSCLC): 6.8 µM | TGI (HOP-62 NSCLC): > 86.8 µM | GI50 (TK-10 renal): 4.88 µM | TGI (TK-10 renal): 99 µM
